Measurements reported in US9381191B2, “Imidazopyridine derivatives useful in treating diabetes” (METABRAIN RESEARCH, priority 2012, dated 2016).

Columns and labels:
[1] = tested on: isolated rat hepatocytes; assay: Hepatic production of glucose, 20 h incubation; type: cell-based, Wistar rat; conditions: for HGP % of ctrl @ 50 μM / HGP % of ctrl @ 100 μM: rat hepatocytes
Protocol: (§1) The hepatocytes are isolated from Wistar rat liver having fasted for 24 h after perfusion of collagenase in the portal vein. 1) The freshly isolated hepatocytes are sown in 6-well plates coated with collagen and containing an adhesion medium (Williams Medium). After adhesion, the medium is replaced with RPMI 1640 medium without any glucose, containing hydrocortisone (7·10^−5M) for a duration from 16 to 18 h. The next day, the glucose hepatic production test is conducted in a Krebs medium for 3 h. The basal conditions are cells incubated with only Krebs, the stimulated conditions are the cells placed in Krebs+lactate+pyruvate, the produced conditions are the cells exposed to chemical compounds in a Krebs/lactate/pyruvate medium. In the case when the compounds are dissolved in DMSO, all the conditions of the tests are met in the presence of a final concentration of 0.1% DMSO. The positive control of the test is the mercaptopicolinate known for its inhibitory action on hepatic production of glucose via the phosphoenolpyruvate carboxykinase. For short term treatments, the compounds are incubated for 3 h. For long term treatments, the compounds are incubated for 20 h at the moment when the hepatocytes are cultivated in RPMI and then added during the hepatic production test for 3 h. At the end of the 3 hours of incubation, the supernatant is recovered for measurement of glucose with a colorimetric method using glucose oxidase. The cells are lysed with a 0.1% NaOH aqueous solution in order to measure the amount of protein with the Lowry method. The results are expressed in mmol of glucose per mg of protein.

[2] = tested on: INS-1 cells; assay: Stimulation test of insulin secretion by INS-1 cells; type: cell-based; conditions: Rattus norvegicus, INS1, 1 h, insulin secretion by INS-1 cells in response to glucose; for insulin secretion, % of control at 10 µM: read-out: HGP % of ctrl @ 10 μM; for insulin secretion, % of control at 50 µM: read-out: HGP % of ctrl @ 50 μM
Protocol: The different compounds were tested on an INS-1 beta-pancreatic line in order to evaluate their capability of potentializing the insulin secretion in response to glucose. Very briefly, the cells are cultivated in a culture medium, RPMI 1640 with 10 mM glucose containing 1 mM of sodium pyruvate, 50 μM of 2-mercaptoethanol, 2 mM of glutamine, 10 mM of HEPES, 100 IU/ml of penicillin, 100 μg/ml of streptomycin and 10% of inactivated fetal calf serum, as described by Asfari et al.. For the insulin secretion test, the INS-1 cells are sown and cultivated in 96-well plates. After 3 days of cultivation at 37° C. in a humid atmosphere (95% air/5% CO2), the medium is removed and the cells are incubated for 16 h in a medium containing 5 mM of glucose and 1% of inactivated fetal calf serum. On the day of the test, the cells are washed with a Krebs buffer (pH 7.4) containing 0.1% of bovine albumin and then pre-incubated for 30 min at 37° C. in this same buffer containing 2.8 mM of glucose. Finally, the cells are again washed with Krebs buffer and then incubated for 1 h in the buffer of the secretion test (Krebs, pH 7.4 containing 0.1% of bovine albumin and 3.5 mM of glucose and molecules to be evaluated). At the end of the test, the cell supernatant is recovered in order to measure therein the secreted insulin, by means of an ELISA kit using a rat anti-insulin antibody (ELISA Alpco Cat no. 80-INSRTH-E10). Each condition is tested in triplicate. The 3.5 mM glucose, the 10^−7M GLP-1 and the Forskoline 10^−7/IBMX 10^−5M mixtures are used as positive controls of the test. A compound stimulates the secretion of insulin if this factor is greater than or equal to 130% of the control for a given glucose dose.

[3] = tested on: isolated perfused pancreases of N0STZ diabetic rats; assay: Insulin secretion in response to glucose at isolated perfused pancreases of N0STZ diabetic rats; design: species or system rat; conditions: glucose 16.5 mM, control group 560 ± 71
Protocol: The pancreas was taken on rats made to be diabetic by injection of Streptozotocin on the day of birth and anaesthetized with Pentobarbital (Nembutal©: 45 mg/kg; intraperitoneal route). These rats have a specific deficiency of the insulin response to glucose, as observed in humans with diabetes of type II. The isolation and the perfusion of the pancreas were achieved according to a modification of the procedure described by Sussman et al.. The effect of the compounds or reference substances is tested for 35 minutes (from t=20 min to t=55 min) in Krebs buffer, and then 20 minutes (from t=55 min to t=75 min) in the presence of glucose 16.5 mM. The concentration of insulin secreted into the medium is measured by an Elisa assay (ELISA Alpco Cat no. 80-INSRTH-E10). The results are expressed as an average +/−SEM (Standard Error of the Mean) of several experiments.

[4] = tested on: isolated rat hepatocytes; assay: Hepatic production of glucose, 3 h incubation; type: cell-based, Wistar rat; conditions: for activity at 50 µM / activity at 100 µM: Hepatocyte, rat hepatocytes; for activity at 50 µM: read-out: HGP % of ctrl @ 50 μM; for activity at 100 µM: read-out: HGP % of ctrl @ 100 μM
Protocol: as §1

[5] = tested on: GK rats; assay: Antidiabetic activity in GK (Goto-Kakisaki) rats; type: in vivo, rat; conditions: single oral dose 50 mg/kg
Protocol: The antidiabetic activity of compound 118 was evaluated in GK rats, a non-obese model of diabetes of type II. This model was obtained by cross-breeding of Wistar rats selected on the basis of a slight intolerance to glucose. These rats have the majority of dysfunctions observed in diabetes of type II in humans: hyperglycaemia, intolerance to glucose, insulin-resistance, and deteriorated insulin response to glucose. These animals were bred at Metabrain and were housed in an animal housing facility with a regulated temperature (22±2° C.) under constant humidity (50±20%) with a day/night cycle of 12 h (light from 7 h-19 h) and have access ad libitum to food and drink. The housing and experimentation conditions comply with the European directives relating to health and ethical treatment of laboratory animals (ETS123). In this study, the rats used are male 16-week old GK rats having fasted for 2 hours before beginning the study (postabsorptive condition). Monitoring of glycaemia is carried out on 2 groups of rats: One group treated with the compound 118 orally at the single dose of 50 mg/kg and a control group treated orally with the carrier. A blood sample was taken at T0 just before administration of the compound 118 or of the carrier and at times T1 h, T2 h, T4 h and T6 h after administration. The determination of glycaemia is achieved from a drop of blood taken from the tail measured with a glucometer Accu-Check Performa. The results shown below are expressed as a percentage of the decrease of glycaemia at T1 h, T2 h, T4 h and T6 h for the group treated with the compound 118 as compared with the control group

Row | SMILES | HGP % of ctrl @ 50 μM [1] | HGP % of ctrl @ 100 μM [1] | insulin secretion, % of control at 10 µM [2] | insulin secretion, % of control at 50 µM [2] | activity at 50 µM [4] | activity at 100 µM [4] | inhibition of hepatic production of glucose ([4]; with two doses) | further results
1 | CCOC(=O)COCc1nc2ccccn2c1C#Cc1cccc(OC)c1 [Derivative 12, ethyl 2-((3-((3-methoxyphenyl)-ethynyl)imidazo[1,2-a]pyridin-2-yl)methoxy)acetate] | 89 % of ctrl | 54 % of ctrl | 123% | 204% | – | – | – | –
2 | O=C(O)COCc1nc2ccccn2c1C#Cc1ccc(F)cc1 [Derivative 44, 2-((3-((4-fluorophenyl)ethynyl)-imidazo[1,2-a]pyridin-2-yl)methoxy)acetic acid] | – | – | – | – | – | – | – | Insulin secretion peak at G16.5 mM, Tested product ([3]; tested concentration 10 μM): 1 724 μU/min.
3 | O=C([O-])COCc1nc2ccccn2c1C#Cc1ccc(F)cc1.[Na+] [Derivative 46, sodium 2-((3-((4-fluorophenyl)-ethynyl)imidazo[1,2-a]pyridin-2-yl)methoxy)acetate] | 93 % of ctrl | 52 % of ctrl | – | – | 85% | 69% | – | –
4 | CC(C)OC(=O)COCc1nc2ccccn2c1C#Cc1ccc(F)cc1 [Derivative 54, isopropyl 2-((3-((4-fluorophenyl)ethynyl)imidazo [1,2-a]pyridin-2-yl)methoxy) acetate] | 64 % of ctrl | 44 % of ctrl | 203% | – | – | – | – | Insulin secretion peak at G16.5 mM, Tested product ([3]; tested concentration 1 μM): 961 ± 130 μU/min.; Insulin secretion peak at G16.5 mM, Tested product ([3]; tested concentration 10 μM): 1 637 μU/min.
5 | CCONC(=O)COCc1nc2ccccn2c1C#Cc1ccc(F)cc1 [Derivative 58, N-ethoxy-2-((3-((4-fluorophenyl)ethynyl)imidazo [1,2-a]pyridin-2-yl)methoxy) acetamide] | 32 % of ctrl | 17 % of ctrl | 127% | 233% | – | – | – | inhibition of hepatic production of glucose [1]: strongest inhibitions
6 | COC(=O)c1cccc(OCc2nc3ccccn3c2C#Cc2ccccc2)c1 [Derivative 87, methyl 3-((3-(phenylethynyl)-imidazo[1,2-a]pyridin-2-yl)methoxy)benzoate] | – | – | 182% | 167% | 43% | 25% | strongest inhibitions | –
7 | O=C(O)c1ccccc1OCc1nc2ccccn2c1C#Cc1ccc(F)cc1 [Derivative 88, 2-((3-((4-fluorophenyl)ethynyl)-imidazo[1,2-a]pyridin-2-yl)methoxy)benzoic acid] | – | – | 138% | 263% | 67% | 50% | – | inhibition of hepatic production of glucose ([4]; dose of 100 μM): strongest inhibitions
8 | O=C([O-])c1ccccc1OCc1nc2ccccn2c1C#Cc1ccccc1.[Na+] [Derivative 92, sodium 2-((3-(phenylethynyl)imidazo-[1,2-a]pyridin-2-yl)methoxy)-benzoate] | – | – | 135% | 211% | 58% | 39% | strongest inhibitions | –
9 | CCOC(=O)CSCc1nc2ccc(Cl)cn2c1C#Cc1ccc(F)cc1 [Derivative 110, ethyl 2-[[6-chloro-3-[2-[4-(fluoro)-phenyl]ethynyl]imidazo[1,2-a]pyridin-2-yl]methylsulfanyl]acetate] | – | – | 162% | 140% | 50% | 37% | strongest inhibitions | –
10 | CCOC(=O)CSCc1nc2ccc(Cl)cn2c1C#Cc1cccc(C(F)(F)F)c1 [Derivative 111, ethyl 2-[[6-chloro-3-[2-[3-(trifluoro-methyl)phenyl]ethynyl]imidazo [1,2-a]pyridin-2-yl]methylsulfanyl]acetate] | – | – | 136% | 173% | 73% | 27% | – | inhibition of hepatic production of glucose ([4]; dose of 100 μM): strongest inhibitions
11 | CCOC(=O)CSCc1nc2ccc(Cl)cn2c1C#Cc1cccc(OC(F)(F)F)c1 [Derivative 112, ethyl 2-[[6-chloro-3-[2-[3-(trifluoromethoxy)phenyl]ethynyl]imidazo[1,2-a]pyridin-2-yl]methylsulfanyl]acetate] | – | – | 150% | 256% | 65% | 26% | – | inhibition of hepatic production of glucose ([4]; dose of 100 μM): strongest inhibitions
12 | O=C(O)CSCc1nc2ccc(Cl)cn2c1C#Cc1ccc(F)cc1 [Derivative 117, 2-[[6-chloro-3-[2-(4-fluorophenyl)ethynyl]imidazo [1,2-a]pyridin-2-yl]methylsulfanyl]acetic acid] | – | – | 130% | 137% | 55% | 43% | strongest inhibitions | –
13 | O=C(O)CSCc1nc2ccc(Cl)cn2c1C#Cc1cccc(C(F)(F)F)c1 [Derivative 118, 2-[[6-chloro-3-[2-[3-(trifluoro-methyl)-phenyl]ethynyl]imidazo[1,2-a]pyridin-2-yl]methylsulfanyl] acetic acid] | 57 % of ctrl | – | – | – | – | – | – | % of activity on glycemia ([5]; T1 h after administration, p = 0.0242): −14%; % of activity on glycemia ([5]; T2 h after administration, p = 0.0171): −15%; % of activity on glycemia ([5]; T4 h after administration, p = 0.1468 NS): −10%; % of activity on glycemia ([5]; T6 h after administration, p = 0.2450 NS): −8%; reduction of hyperglycaemia [5]: capable of reducing hyperglycaemia
